# Data: US11773108B2, “Indene derivatives useful in treating pain and inflammation” (TARO PHARMACEUTICALS INC., priority 2018, dated 2023)
# Like-named read-outs stand apart in the source and are kept apart here.
# Key:
# [1] = system: rat dorsal root ganglion (DRG) cells; assay: Rat dorsal root ganglion (DRG) excitability response to electrical field stimulation; assay type: cell-based; settings: adult rat DRG cells
# Description: Rat Dorsal Root Ganglion Excitability Response of Representative Compounds Dorsal root ganglions (DRGs) were dissected from adult rats. The tissue was processed, and cells were seeded into cell culture plates (48 center wells of one quadrant in 384-well plates) and cultured for 2 days prior to Electrical field stimulation (EFS). To visualize the neuronal excitability response, intracellular Ca^+2 transients were monitored using the Ca^+2 indicator, Ca5. Ca5 was added to the cultures 1 h prior to EFS. Representative compounds of the invention (i.e., test compounds) and reference compound, tetracaine, were added in concentration-response format encompassing six concentrations, performed in duplicate. The highest concentration tested was typically 30 μM with 1 in 3 dilutions generating the subsequent concentrations.
# Effects on DRG excitability by the test compounds and standard were evaluated using four EFS protocols as disclosed in Table 2.
# Experimental results were performed using two seperate sets of plates using separate test compound and standard dilutions, to provide n=2. In the first set of experiments, compounds were added 24 h prior to EFS to increase the possibility to also detect more long-term compound effects. In the second set of experiments the compounds were added directly prior to EFS. Excitability response to EFS was analyzed as the average fluorescence ratio (peak/baseline) change per well. All plates were evaluated using high content imaging equipment post-EFS, imaging the Ca5 background staining to detect any possibile compound-related toxic effects.
# Average response by the reference compound, tetracaine, was 4.05 μM.
# [2] = Metabolism by human liver microsomes; assay type: in vitro ADME; settings: human liver microsomes 1 mg/mL protein, 10 μM, in the presence of NADPH, LC-MS/MS
# Description: Representative compounds of the invention (i.e., test compounds) and the positive control, 7-ethoxycoumarin, were prepared as stock solutions at 10 mM in DMSO and eventually diluted to 10 μM in the test plate, with an appropriate amount of acetonitrile and tris HCl buffer. Final DMSO and acetonitrile concentrations were […] and 0.5% respectively. NADPH was prepared in tris HCl buffer to a stock of 10 mM. A frozen aliquot of liver microsomes was retrieved from the freezer (−80° C.) and thawed by placing the tube on wet ice. After thawing, the tubes were gently mixed and the required amount, transferred to tris HCl buffer. Test compounds or positive control were pre-incubated, separately, for 10 minutes, with liver microsomes (1 mg/mL protein), at 37° C., in 100 mM Tris HCl at pH 7.5. After preincubation the reaction was started by adding 1 mM NADPH (pre-equilibrated to 30° C.) and the reaction allowed to proceed for 60 minutes. At 60 minutes, a 50 μL aliquot was removed and quenched with 200 uL of acetonitrile containing a mixture of internal standards (Tolbutamide (500 ng/mL) and Telmistartan (500 ng/mL)) and vortexed then centrifuged at 4000 rpm for 10 minutes (Eppendorf 5810R). The supernatant was transferred to a 96 well plate for LC-MS/MS analysis.
# An LC-MS/MS method was devised for the test compounds and the control, using a AB Sciex API 4000 system coupled to a NEXAR™ UHPLC (Shimadzu) system. Analytes were separated on a Phenomenex Kinetex C18 column (50×2.1 mm, 5 μm) using a gradient that was appropriate for each compound, at a flow rate of 1 ml/minute, utilizing a mobile phase of 0.1% formic acid in MILLI-Q™ water (A) and 0.1% formic acid in acetonitrile (B). The MS instrument was operated in positive mode (ESI+)/negative (ESI−). The multiple reaction monitoring (MRM) transition for test and control compounds was used for the LC-MS/MS analysis. MRM transitions for control compound 7-ethoxycoumarinm were Quadropole 1: 191.0, Quadropole 3:163.0, dwell time: 75 msec, using curtain gas settings of 5 V, ion-spray voltage of 5500 V, temperature of 50° C. and gas settings for nebulizer and auxiliary set to 30 and 40 psi, respectively. The interface heater was kept on. Entrance potential and collision cell exit potential were varied to tune for a specific compound.
# Using a suitable LC-MS/MS method, the percentage of drug remaining at 60 minutes ([…]) was assessed by comparing the average analyte to internal standard area ratio at 60 minutes to the average analyte to internal standard area ratio at 0 time control, as a percentage, from a 5 to 10 μL sample injection.
# According to the above assay, the test compounds listed in Table 7 below were active in the Human liver microsome assay at 10 μM and the % of drug remaining after 60 minutes (PDR60), in the presence of NADPH, was assessed by LC-MS/MS. Average PDR60 for the standard compound, 7-ethoxycoumarin was <=65% in the presence of NADPH. Scoring for the test compounds, in the presence of NADPH, was as follows: “A” represents a PDR60 of 81 to 100%, “B” represents a PDR60 of 61 to 80%, “C” represents a PDR60 of 31 to 60% and “D” represents a PDR60 of 0 to 30%.
# [3] = Ca5 Ca2+ indicator, six concentrations, highest typically 30 μM, read-out: Scoring: EC50, modulation of rat DRG excitability
Scoring: % of drug remaining after 60 minutes (PDR60) [2],Structure (SMILES),"EC50 [1, 3] [µM]","EC50 ([1]; reference compound, read-out: Average response (rat DRG excitability)) [µM]"
C (“C” represents a PDR60 of 31 to 60%),"C=C1CC[C@H]2[C@H](CN)[C@@H]([C@@]3(C)Cc4cn(-c5ncc(F)cn5)nc4C[C@@H]3CO)CC[C@]12C [Ia-27, ((5R,6S)-5-((3aS,4R,5S,7aS)-4-(aminomethyl)-7a-methyl-1-methyleneoctahydro-1H-inden-5-yl)-2-(5-fluoropyrimidin-2-yl)-5-methyl-4,5,6,7-tetrahydro-2H-indazol-6-yl)methanol]",6 to 15,–
–,"C[C@H]1CC[C@H]2[C@H](CN)[C@@H]([C@@]3(C)Cc4cnn(-c5ccc(F)cc5)c4C[C@@H]3CO)CC[C@]12C [Ia-47, ((5R,6S)-5-((1S,3aS,4S,5S,7aR)-4-(aminomethyl)-1,7a-dimethyloctahydro-1H-inden-5-yl)-1-(4-fluorophenyl)-5-methyl-4,5,6,7-tetrahydro-1H-indazol-6-yl)methanol]",< 2,–
D (“D” represents a PDR60 of 0 to 30%),"C=C1CC[C@H]2[C@H](CN)[C@@H]([C@@]3(C)Cc4cnn(-c5ncc(F)cn5)c4C[C@@H]3CO)CC[C@]12C [Ia-26, ((5R,6S)-5-((3aS,4R,5S,7aS)-4-(aminomethyl)-7a-methyl-1-methyleneoctahydro-1H-inden-5-yl)-1-(5-fluoropyrimidin-2-yl)-5-methyl-4,5,6,7-tetrahydro-1H-indazol-6-yl)methanol]",6 to 15,–
C (“C” represents a PDR60 of 31 to 60%),"C=C1CC[C@H]2[C@H](CN)[C@@H]([C@@]3(C)Cc4cn(-c5ccc(Oc6ccccc6)cc5)nc4C[C@@H]3CO)CC[C@]12C [Ia-29, ((5R,6S)-5-((3aS,4R,5S,7aS)-4-(aminomethyl)-7a-methyl-1-methyleneoctahydro-1H-inden-5-yl)-5-methyl-2-(4-phenoxyphenyl)-4,5,6,7-tetrahydro-2H-indazol-6-yl)methanol]",< 2,–
B (“B” represents a PDR60 of 61 to 80%),"C=C1CC[C@H]2[C@H](CN)[C@@H]([C@@]3(C)Cc4cnn(-c5ccc(C(=O)c6ccccc6)cc5)c4C[C@@H]3CO)CC[C@]12C [Ia-20, (4-((5R,6S)-5-((3aS,4R,5S,7aS)-4-(aminomethyl)-7a-methyl-1-methyleneoctahydro-1H-inden-5-yl)-6-(hydroxymethyl)-5-methyl-4,5,6,7-tetrahydro-1H-indazol-1-yl)phenyl)(phenyl)methanone]",< 2,–
–,"C=C1CC[C@H]2[C@H](CN)[C@@H]([C@@]3(C)Cc4cnn(Cc5ccc(F)cc5)c4C[C@@H]3CO)CC[C@]12C [Ia-18, ((5R,6S)-5-((3aS,4R,5S,7aS)-4-(aminomethyl)-7a-methyl-1-methyleneoctahydro-1H-inden-5-yl)-1-(4-fluorobenzyl)-5-methyl-4,5,6,7-tetrahydro-1H-indazol-6-yl)methanol]",< 2,–
B (“B” represents a PDR60 of 61 to 80%),"C=C1CC[C@H]2[C@H](CN)[C@@H]([C@@]3(C)Cc4cn(-c5ccc(OC)cc5)nc4C[C@@H]3CO)CC[C@]12C [Ia-15, ((5R,6S)-5-((3aS,4R,5S,7aS)-4-(aminomethyl)-7a-methyl-1-methyleneoctahydro-1H-inden-5-yl)-2-(4-methoxyphenyl)-5-methyl-4,5,6,7-tetrahydro-2H-indazol-6-yl)methanol]",6 to 15,–
D (“D” represents a PDR60 of 0 to 30%),"C=C1CC[C@H]2[C@H](CN)[C@@H]([C@@]3(C)Cc4cnn(-c5ccc(F)c(F)c5)c4C[C@@H]3CO)CC[C@]12C [Ia-22, ((5R,6S)-5-((3aS,4R,5S,7aS)-4-(aminomethyl)-7a-methyl-1-methyleneoctahydro-1H-inden-5-yl)-1-(3,4-difluorophenyl)-5-methyl-4,5,6,7-tetrahydro-1H-indazol-6-yl)methanol]",< 2,–
A (“A” represents a PDR60 of 81 to 100%),"COc1ccc(Cn2cc3c(n2)C[C@H](CO)[C@@](C)([C@H]2CC[C@]4(C)[C@@H](C)CC[C@H]4[C@@H]2CN)C3)cc1 [Ia-52, ((5R,6S)-5-((1S,3aS,4S,5S,7aR)-4-(aminomethyl)-1,7a-dimethyloctahydro-1H-inden-5-yl)-2-(4-methoxybenzyl)-5-methyl-4,5,6,7-tetrahydro-2H-indazol-6-yl)methanol]",< 2,–
B (“B” represents a PDR60 of 61 to 80%),"C=C1CC[C@H]2[C@H](CN)[C@@H]([C@@]3(C)Cc4cnn(-c5ccc(Oc6ccccc6)cc5)c4C[C@@H]3CO)CC[C@]12C [Ia-28, ((5R,6S)-5-((3aS,4R,5S,7aS)-4-(aminomethyl)-7a-methyl-1-methyleneoctahydro-1H-inden-5-yl)-5-methyl-1-(4-phenoxyphenyl)-4,5,6,7-tetrahydro-1H-indazol-6-yl)methanol]",< 2,–
A (“A” represents a PDR60 of 81 to 100%),"C=C1CC[C@H]2[C@H](CN)[C@@H]([C@@]3(C)Cc4cnn(-c5ccc(Oc6ccc(C(=O)O)cc6)cc5)c4C[C@@H]3CO)CC[C@]12C [Ia-36, 4-(4-((5R,6S)-5-((3aS,4R,5S,7aS)-4-(aminomethyl)-7a-methyl-1-methyleneoctahydro-1H-inden-5-yl)-6-(hydroxymethyl)-5-methyl-4,5,6,7-tetrahydro-1H-indazol-1-yl)phenoxy)benzoic acid]",> 15,–
–,"CCCCNc1ccc(C(=O)OCCN(C)C)cc1 [tetracaine, reference compound]",–,4.05
B (“B” represents a PDR60 of 61 to 80%),"C=C1CC[C@H]2[C@H](CN)[C@@H]([C@@]3(C)Cc4cnn(-c5ccc(Oc6ccc(F)cc6)cc5)c4C[C@@H]3CO)CC[C@]12C [Ia-24, ((5R,6S)-5-((3aS,4R,5S,7aS)-4-(aminomethyl)-7a-methyl-1-methyleneoctahydro-1H-inden-5-yl)-1-(4-(4-fluorophenoxy)phenyl)-5-methyl-4,5,6,7-tetrahydro-1H-indazol-6-yl)methanol]",< 2,–
D (“D” represents a PDR60 of 0 to 30%),"C=C1CC[C@H]2[C@H](CN)[C@@H]([C@@]3(C)Cc4cnn(-c5ccc(F)cc5)c4C[C@@H]3CO)CC[C@]12C [Ia-12, ((5R,6S)-5-((3aS,4R,5S,7aS)-4-(aminomethyl)-7a-methyl-1-methyleneoctahydro-1H-inden-5-yl)-1-(4-fluorophenyl)-5-methyl-4,5,6,7-tetrahydro-1H-indazol-6-yl)methanol]",< 2,–
